Our source for the IC50 values is ChEMBL document CHEMBL1817620, “Synthesis and cytotoxicity of 2-phenylquinazolin-4(3H)-one derivatives” (Eur J Med Chem, 2011).

Holding throughout (type): functional, cell-based
One experiment deals with HCT-29. As to the kind of experiment: Cytotoxicity against human HCT29 cells after 4 days by MTT assay. To be noted: HCT-29, 96 h. (Tetrazolium dyes change colour on reduction, which living cells bring about.)
The next experiment concerns DU-145. Briefly: Cytotoxicity against human DU145 cells after 4 days by MTT assay. To be noted: DU-145, 96 h.
In another experiment the test system is MDA-MB-231. Briefly: Cytotoxicity against human MDA-MB-231 cells after 4 days by MTT assay. To be noted: MDA-MB-231, 96 h.
Another experiment concerns HL-60. As to the kind of experiment: Cytotoxicity against human HL60 cells after 4 days by MTT assay. To be noted: HL-60, 96 h.
The next experiment has as its system HeLa. Briefly: Cytotoxicity against human HeLa cells after 4 days by MTT assay. To be noted: 96 h.

One may read the IC50 as the midpoint of a concentration-inhibition curve. Regarding `COc1ccc(S(=O)(=O)N2CCN(C(=O)c3ccc(-c4nc5ccccc5c(=O)n4C)cc3)CC2)cc1`, the concentration for half-maximal inhibition (IC50) with HCT-29 was 25.8 µM; with DU-145 it was 21.5 µM; with MDA-MB-231 it was more than 50 µM; with HL-60 it was 5.9 µM; in the experiment on HeLa, 23.7 µM.

`O=C(c1ccc(-c2nc3ccccc3c(=O)[nH]2)cc1)N1CCN(S(=O)(=O)c2cccc(C(F)(F)F)c2)CC1`: the IC50 with HCT-29 is 9.5 µM; in the experiment with DU-145 it was 14.1 µM; with MDA-MB-231, more than 50 µM; in the experiment on HL-60, 23.5 µM; in the experiment with HeLa, 9.3 µM.

For the compound `O=C(c1ccc(-c2nc3ccccc3c(=O)[nH]2)cc1)N1CCN(S(=O)(=O)c2ccc(C(F)(F)F)cc2)CC1`, the IC50 in the experiment with HCT-29 was found to be 21.6 µM; with DU-145, 14.9 µM; in the experiment on MDA-MB-231 it was 31.4 µM; in the experiment with HL-60, 6.5 µM; in the experiment with HeLa, 13.4 µM.

Turning to `Cn1c(-c2ccc(C(=O)N3CCN(S(=O)(=O)c4ccccc4)CC3)cc2)nc2ccccc2c1=O`, the IC50 was 13.3 µM with HCT-29; 10.4 µM in the experiment on DU-145; 9.1 µM in the experiment on MDA-MB-231; 5.9 µM with HL-60; 14.1 µM in the experiment with HeLa.

Consider `COc1ccc(S(=O)(=O)N2CCN(C(=O)c3ccc(-c4nc5ccccc5c(=O)n4Cc4ccccc4)cc3)CC2)cc1`, for which the half-inhibitory concentration (IC50) in the experiment on HCT-29 is 22.5 µM; in the experiment on DU-145 it was 16 µM; in the experiment on MDA-MB-231, 48.1 µM; with HL-60 it was 6.1 µM; in the experiment with HeLa it was 34.2 µM.

Take `CCCCS(=O)(=O)N1CCN(C(=O)c2ccc(-c3nc4ccccc4c(=O)[nH]3)cc2)CC1`: the IC50 in the experiment on HCT-29 was determined as 10.3 µM; in the experiment on DU-145, 17.9 µM; with MDA-MB-231 it was 1.2 µM; in the experiment on HL-60 it was 14.9 µM; with HeLa, 17.3 µM.

`O=C(c1ccc(-c2nc3ccccc3c(=O)[nH]2)cc1)N1CCNCC1`: the IC50 with HCT-29 is more than 50 µM; with DU-145 it was 24.3 µM; in the experiment on MDA-MB-231 it was more than 50 µM; in the experiment with HL-60, 16.7 µM; in the experiment with HeLa, more than 50 µM.

Turning to `O=C(O)c1ccc(-c2nc3ccccc3c(=O)[nH]2)cc1`, the concentration for half-maximal inhibition (IC50) was 30.6 µM in the experiment on HCT-29; 28.1 µM in the experiment on DU-145; more than 50 µM in the experiment with MDA-MB-231; 11.7 µM in the experiment with HL-60; more than 50 µM with HeLa.

As to `CC(C)S(=O)(=O)N1CCN(C(=O)c2ccc(-c3nc4ccccc4c(=O)[nH]3)cc2)CC1`, the IC50 was more than 50 µM in the experiment with HCT-29; 17.4 µM in the experiment with DU-145; 5.8 µM in the experiment on MDA-MB-231; 7.5 µM with HL-60; 11 µM in the experiment on HeLa.

Regarding `Cc1ccc(CS(=O)(=O)N2CCN(C(=O)c3ccc(-c4nc5ccccc5c(=O)[nH]4)cc3)CC2)cc1`, the half-maximal inhibitory concentration (IC50) in the experiment on HCT-29 came out at 19.5 µM; in the experiment on DU-145, 29.6 µM; in the experiment with MDA-MB-231, 7.7 µM; with HL-60, 16.7 µM; in the experiment on HeLa it was 9 µM.

For the compound `O=C(c1ccc(-c2nc3ccccc3c(=O)n2Cc2ccccc2)cc1)N1CCN(S(=O)(=O)c2ccccc2)CC1`, the IC50 stood at 23.6 µM with HCT-29; 15.3 µM with DU-145; 19.3 µM in the experiment on MDA-MB-231; 4.2 µM in the experiment with HL-60; 20.1 µM in the experiment on HeLa.

With `CC(C)c1ccc(S(=O)(=O)N2CCN(C(=O)c3ccc(-c4nc5ccccc5c(=O)[nH]4)cc3)CC2)cc1`, the IC50 in the experiment with HCT-29 came out at 9 µM; in the experiment with DU-145 it was 16.2 µM; in the experiment on MDA-MB-231 it was 9.4 µM; with HL-60, 2.6 µM; with HeLa, 17.2 µM.

On to `O=C(c1ccc(-c2nc3ccccc3c(=O)[nH]2)cc1)N1CCN(S(=O)(=O)C2CC2)CC1`, for which the 50% inhibitory concentration (IC50) was more than 50 µM in the experiment with HCT-29; 6 µM with DU-145; 8.2 µM with MDA-MB-231; 10.8 µM with HL-60; more than 50 µM with HeLa.

With `O=C(c1ccc(-c2nc3ccccc3c(=O)[nH]2)cc1)N1CCN(S(=O)(=O)c2cccc3cccnc23)CC1`, the IC50 in the experiment on HCT-29 was more than 50 µM; with DU-145 it was 15.6 µM; with MDA-MB-231, 6.3 µM; in the experiment on HL-60 it was 14.6 µM; in the experiment on HeLa, 11.1 µM.

In the case of `COc1ccc(S(=O)(=O)N2CCN(C(=O)c3ccc(-c4nc5ccccc5c(=O)[nH]4)cc3)CC2)cc1`, the half-inhibitory concentration (IC50) in the experiment with HCT-29 was 21.6 µM; with DU-145 it was 27 µM; in the experiment on MDA-MB-231, 5.1 µM; in the experiment on HL-60, 7.5 µM; in the experiment with HeLa, more than 50 µM.

Turning to `O=C(c1ccc(-c2nc3ccccc3c(=O)[nH]2)cc1)N1CCN(S(=O)(=O)c2ccccc2)CC1`, the IC50 was found to be 12.5 µM with HCT-29; 7.1 µM with DU-145; 32.6 µM in the experiment with MDA-MB-231; 14.3 µM in the experiment on HL-60; 8.9 µM in the experiment with HeLa.

On to `O=C(c1ccc(-c2nc3ccccc3c(=O)[nH]2)cc1)N1CCN(S(=O)(=O)c2ccc(F)cc2)CC1`, for which the IC50 turned out to be 11.1 µM in the experiment on HCT-29; 35 µM in the experiment with DU-145; 27.7 µM with MDA-MB-231; 10.9 µM with HL-60; 35.4 µM with HeLa.

In the case of `Cn1c(-c2ccc(C(=O)N3CCN(C(=O)OC(C)(C)C)CC3)cc2)nc2ccccc2c1=O`, the IC50 was 28 µM with HCT-29; 17.2 µM with DU-145; 24.9 µM in the experiment on MDA-MB-231; 9.5 µM in the experiment on HL-60; 15.5 µM in the experiment with HeLa.

Consider `CC(C)(C)OC(=O)N1CCN(C(=O)c2ccc(-c3nc4ccccc4c(=O)n3Cc3ccccc3)cc2)CC1`, for which the IC50 with HCT-29 was more than 50 µM; in the experiment on DU-145, more than 50 µM; with MDA-MB-231 it was 40.4 µM; in the experiment on HL-60, 2.9 µM; in the experiment with HeLa, 21.6 µM.

With `Cc1ccc(S(=O)(=O)N2CCN(C(=O)c3ccc(-c4nc5ccccc5c(=O)[nH]4)cc3)CC2)cc1`, the IC50 came to 10.5 µM with HCT-29; 18.1 µM with DU-145; 43.5 µM in the experiment on MDA-MB-231; 8.4 µM in the experiment with HL-60; 23.5 µM with HeLa.

Turning to `CC(C)(C)OC(=O)N1CCN(C(=O)c2ccc(-c3nc4ccccc4c(=O)[nH]3)cc2)CC1`, the IC50 with HCT-29 is 20.7 µM; with DU-145 it was more than 50 µM; in the experiment with MDA-MB-231 it was 8.5 µM; with HL-60, 15.4 µM; in the experiment on HeLa, 20.7 µM.

As to `COc1cccc2c1C(=O)c1c(O)c3c(c(O)c1C2=O)C[C@@](O)(C(=O)CO)C[C@@H]3O[C@H]1C[C@H](N)[C@H](O)[C@H](C)O1` [DOXORUBICIN], the 50% inhibitory concentration (IC50) came to 2.5 µM in the experiment with HCT-29, 1.9 µM in the experiment on DU-145, 0.8 µM in the experiment on HL-60 and 3.7 µM with HeLa.

`O=C(c1ccc(-c2nc3ccccc3c(=O)[nH]2)cc1)N1CCN(S(=O)(=O)c2cccc3ccccc23)CC1`: the IC50 turned out to be 11.6 µM with HCT-29; 9.9 µM in the experiment with DU-145; 22.2 µM in the experiment with MDA-MB-231; 7 µM in the experiment on HL-60; 11.7 µM with HeLa.

`CS(=O)(=O)N1CCN(C(=O)c2ccc(-c3nc4ccccc4c(=O)[nH]3)cc2)CC1`: the half-inhibitory concentration (IC50) was more than 50 µM with HCT-29; 20 µM with DU-145; 6.4 µM in the experiment on MDA-MB-231; 11.6 µM in the experiment with HL-60; more than 50 µM with HeLa.

Take `O=C(c1ccc(-c2nc3ccccc3c(=O)[nH]2)cc1)N1CCN(S(=O)(=O)c2ccccc2C(F)(F)F)CC1`: the IC50 in the experiment on HCT-29 was more than 50 µM; with DU-145, 24.7 µM; in the experiment on MDA-MB-231, 5.5 µM; in the experiment on HL-60, 14.1 µM; in the experiment on HeLa, 8.3 µM.
